Assay results reported in patent US8173694B2, “Therapeutic agent” (Pentraxin Therapeutics Limited, priority 2001, dated 2012).

Experiments:
[1] = target: serum amyloid P component (SAP) (Homo sapiens, UniProt P02743); assay: Inhibition of SAP binding to amyloid fibrils in vitro; conditions: in vitro inhibition of binding of SAP to amyloid fibrils, protocol of EP 0915088 page 10; read-out: IC50
From the text: A method for screening and testing inhibitors of serum amyloid P component (SAP) binding to amyloid fibrils in vitro was devised and used in collaboration with F Hoffmann-La Roche Ltd to identify a suitable lead molecule for drug development. A library of candidate compounds was screened accordingly. The subsequent collaborative medicinal chemistry programme led to synthesis of a family of dicarboxylic acid, pyrrolidone ring containing molecules, of which the most studied is (R)-1-[6-(R)-2-Carboxy-pyrrolidin-1-yl]-6-oxo-hexanoyl]pyrrolidine-2-carboxylic acid. This molecule and related compounds (EP-A-0915088) are modestly potent inhibitors of SAP binding to amyloid fibrils in vitro, with IC50 values around 0.5-1.0 μM.
Further studies determined that each of the following bis-D-Proline compounds were tested for their ability to deplete SAP in vivo as described above. Each of the compounds identified below successfully depleted SAP. In addition, certain of the compounds were further tested for in vitro inhibition of binding of SAP to amyloid fibrils in accordance with the protocol provided in EP 0915088 at page 10, as referenced above. The results are shown in the second column below, where applicable.

SAP [2] = target: SAP (Homo sapiens, UniProt P02743); conditions: known low molecular weight ligands; cited from earlier work
SAP [3] = assay: SAP binding to experimentally induced amyloid deposits in mice; type: in vivo, mouse
From the text: The potency of (R)-1-[6-(R)-2-Carboxy-pyrrolidin-1-yl]-6-oxo-hexanoyl]pyrrolidine-2-carboxylic acid in vivo was initially considered to be consistent with its lower IC50 value in vitro. However the decameric assembly of pentameric SAP molecules, induced by the cross linking capacity of the palindromic drug, is an abnormal molecular configuration which, according to the present invention, will be recognised in vivo and promptly cleared from the circulation. This action of the drug, leading to massive depletion of SAP from the plasma, makes a critical contribution to removal of SAP from the amyloid deposits because the SAP in amyloid is derived from, and in equilibrium with, the plasma SAP pool.

Sequence of serum amyloid P component (SAP) (P02743 20-223): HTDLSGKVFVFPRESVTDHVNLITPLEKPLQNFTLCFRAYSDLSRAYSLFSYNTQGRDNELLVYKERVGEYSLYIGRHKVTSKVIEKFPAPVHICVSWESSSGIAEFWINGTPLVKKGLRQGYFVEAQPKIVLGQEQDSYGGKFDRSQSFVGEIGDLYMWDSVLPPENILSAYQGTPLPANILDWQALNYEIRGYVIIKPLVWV
Sequence of SAP (Homo sapiens, UniProt P02743) (P02743 20-223): as above

SMILES	IC50 [1]	further results
O=C(O)[C@H]1CCCN1C(=O)Cc1ccc(CC(=O)N2CCC[C@@H]2C(=O)O)cc1	350 nM	
O=C(O)[C@H]1CCCN1C(=O)Cc1cccc(CC(=O)N2CCC[C@@H]2C(=O)O)c1	700 nM	
Cc1c(OCC(=O)N2CCC[C@@H]2C(=O)O)cccc1OCC(=O)N1CCC[C@@H]1C(=O)O	500 nM	
NCCOP(=O)(O)O [phosphoethanolamine]		Affinity of binding by SAP (SAP [2]): about millimolar
O=C(O)[C@H]1CCCN1C(=O)COc1ccccc1OCC(=O)N1CCC[C@@H]1C(=O)O	400 nM	
CC(CS)C(=O)N1CCC[C@@H]1C(=O)O (stereo partly drawn) [1-(3-Mercapto-2-methyl-1-oxopropyl)-D-proline]		Binding of SAP to experimentally induced amyloid deposits (SAP [3]): inhibits binding of SAP; Dissociation of SAP already bound in amyloid deposits (SAP [3]): dissociates SAP that is already bound in the deposits
O=C(O)[C@H]1CCCN1C(=O)c1ccc(C(=O)N2CCC[C@@H]2C(=O)O)cc1	700 nM	
O=C(O)[C@H]1CCCN1C(=O)COc1ccc(OCC(=O)N2CCC[C@@H]2C(=O)O)cc1	300 nM	
CO[C@@H]1O[C@@H]2COC(C)(C(=O)O)O[C@@H]2[C@H](O)[C@H]1O (stereo partly drawn) [MOβDG, methyl 4,6-O-(1-carboxyethylidene)-β-D-galactopyranoside]		Affinity of binding by SAP (SAP [2]): about millimolar
